Source: the NIST ThermoML archive (doi:10.1016/j.jct.2016.03.026)

Experiment: xn = mol fraction of the nth substance listed
Conditions: Fluid (supercritical or subcritical phases), Vibrating tube method, x1 = 0.97

O=C=O [carbon dioxide] + CO
Conditions	mass density [kg/m3]
304.21 K, 16700 kPa	863.76
304.21 K, 16725 kPa	864.02
304.21 K, 16750 kPa	864.2
304.21 K, 16775 kPa	864.47
304.21 K, 16800 kPa	864.63
304.21 K, 16825 kPa	864.86
304.21 K, 16850 kPa	865.05
304.21 K, 16875 kPa	865.26
304.21 K, 16900 kPa	865.51
304.21 K, 16925 kPa	865.7
304.21 K, 16950 kPa	865.9
304.21 K, 16975 kPa	866.12
304.21 K, 17000 kPa	866.34
304.21 K, 17025 kPa	866.56
304.21 K, 17050 kPa	866.78
304.21 K, 17075 kPa	866.99
304.21 K, 17100 kPa	867.2
304.21 K, 17125 kPa	867.4
304.21 K, 17150 kPa	867.63
304.21 K, 17175 kPa	867.77
304.21 K, 17200 kPa	867.99
304.21 K, 17225 kPa	868.2
304.21 K, 17250 kPa	868.43
304.21 K, 17275 kPa	868.66
304.21 K, 17300 kPa	868.87
304.21 K, 17325 kPa	869.01
304.21 K, 17350 kPa	869.28
304.21 K, 17375 kPa	869.42
304.21 K, 17400 kPa	869.69
304.21 K, 17425 kPa	869.89
304.21 K, 17450 kPa	870.09
304.21 K, 17475 kPa	870.29
304.21 K, 17500 kPa	870.48
304.21 K, 17525 kPa	870.66
304.21 K, 17550 kPa	870.86
304.21 K, 17575 kPa	871.06
304.21 K, 17600 kPa	871.23
304.21 K, 17625 kPa	871.44
304.21 K, 17650 kPa	871.68
304.21 K, 17675 kPa	871.84
304.21 K, 17700 kPa	872.08
304.21 K, 17725 kPa	872.29
304.21 K, 17750 kPa	872.45
304.21 K, 17775 kPa	872.68
304.21 K, 17800 kPa	872.83
304.21 K, 17825 kPa	873.02
304.21 K, 17850 kPa	873.25
304.21 K, 17875 kPa	873.48
304.21 K, 17900 kPa	873.63
304.21 K, 17925 kPa	873.87
304.21 K, 17950 kPa	874.01
304.21 K, 17975 kPa	874.23
304.21 K, 18000 kPa	874.46
304.21 K, 18025 kPa	874.62
304.21 K, 18050 kPa	874.83
304.21 K, 18075 kPa	875.05
304.21 K, 18100 kPa	875.2
304.21 K, 18125 kPa	875.42
304.21 K, 18150 kPa	875.58
304.21 K, 18175 kPa	875.78
304.21 K, 18200 kPa	876
304.21 K, 18225 kPa	876.22
304.21 K, 18250 kPa	876.35
304.21 K, 18275 kPa	876.56
304.21 K, 18300 kPa	876.78
304.21 K, 18325 kPa	876.99
304.21 K, 18350 kPa	877.14
304.21 K, 18375 kPa	877.36
304.21 K, 18400 kPa	877.5
304.21 K, 18425 kPa	877.73
304.21 K, 18450 kPa	877.88
304.21 K, 18475 kPa	878.11
304.21 K, 18500 kPa	878.3
304.21 K, 18525 kPa	878.46
304.21 K, 18550 kPa	878.68
304.21 K, 18575 kPa	878.87
304.21 K, 18600 kPa	879.03
304.21 K, 18625 kPa	879.24
304.21 K, 18650 kPa	879.38
304.21 K, 18675 kPa	879.61
304.21 K, 18700 kPa	879.76
304.21 K, 18725 kPa	879.99
304.21 K, 18750 kPa	880.19
304.21 K, 18775 kPa	880.38
304.21 K, 18800 kPa	880.58
304.21 K, 18825 kPa	880.78
304.21 K, 18850 kPa	880.89
304.21 K, 18875 kPa	881.09
304.21 K, 18900 kPa	881.28
304.21 K, 18925 kPa	881.49
304.21 K, 18950 kPa	881.68
304.21 K, 18975 kPa	881.88
304.21 K, 19000 kPa	882.06
304.21 K, 19025 kPa	882.19
304.21 K, 19050 kPa	882.43
304.21 K, 19075 kPa	882.62
304.21 K, 19100 kPa	882.73
304.21 K, 19125 kPa	882.92
304.21 K, 19150 kPa	883.11
304.21 K, 19175 kPa	883.3
304.21 K, 19200 kPa	883.48
304.21 K, 19225 kPa	883.65
304.21 K, 19250 kPa	883.86
304.21 K, 19275 kPa	884.07
304.21 K, 19300 kPa	884.25
304.21 K, 19325 kPa	884.43
304.21 K, 19350 kPa	884.6
304.21 K, 19375 kPa	884.78
304.21 K, 19400 kPa	884.95
304.21 K, 19425 kPa	885.12
304.21 K, 19450 kPa	885.28
304.21 K, 19475 kPa	885.46
304.21 K, 19500 kPa	885.62
304.21 K, 19525 kPa	885.78
304.21 K, 19550 kPa	886.04
304.21 K, 19575 kPa	886.21
304.21 K, 19600 kPa	886.37
304.21 K, 19625 kPa	886.54
304.21 K, 19650 kPa	886.76
304.21 K, 19675 kPa	886.92
304.21 K, 19700 kPa	887.09
304.21 K, 19725 kPa	887.24
304.21 K, 19750 kPa	887.4
304.21 K, 19775 kPa	887.64
304.21 K, 19800 kPa	887.8
304.21 K, 19825 kPa	887.96
304.21 K, 19850 kPa	888.12
304.21 K, 19875 kPa	888.28
304.21 K, 19900 kPa	888.48
304.21 K, 19925 kPa	888.67
304.21 K, 19950 kPa	888.82
304.21 K, 19975 kPa	888.98
304.21 K, 20000 kPa	889.2
313.15 K, 8375 kPa	468.68
313.15 K, 8400 kPa	477.47
313.15 K, 8425 kPa	486.09
313.15 K, 8450 kPa	494.72
313.15 K, 8475 kPa	503.03
313.15 K, 8500 kPa	510.78
313.15 K, 8525 kPa	518.43
313.15 K, 8550 kPa	525.63
313.15 K, 8575 kPa	531.85
313.15 K, 8600 kPa	538.44
313.15 K, 8625 kPa	544.56
313.15 K, 8650 kPa	551.14
313.15 K, 8675 kPa	556.46
313.15 K, 8700 kPa	562.19
313.15 K, 8725 kPa	566.94
313.15 K, 8750 kPa	571.39
313.15 K, 8775 kPa	576
313.15 K, 8800 kPa	580.21
313.15 K, 8825 kPa	583.78
313.15 K, 8850 kPa	587.78
313.15 K, 8875 kPa	591.7
313.15 K, 8900 kPa	595.4
313.15 K, 8925 kPa	598.87
313.15 K, 8950 kPa	601.87
313.15 K, 8975 kPa	604.9
313.15 K, 9000 kPa	608.05
313.15 K, 9025 kPa	611
313.15 K, 9050 kPa	613.79
313.15 K, 9075 kPa	616.51
313.15 K, 9100 kPa	619.14
313.15 K, 9125 kPa	621.62
313.15 K, 9150 kPa	624.11
313.15 K, 9175 kPa	626.69
313.15 K, 9200 kPa	629
313.15 K, 9225 kPa	631.2
313.15 K, 9250 kPa	633.38
313.15 K, 9275 kPa	635.44
313.15 K, 9300 kPa	637.48
313.15 K, 9325 kPa	639.32
313.15 K, 9350 kPa	641.4
313.15 K, 9375 kPa	643.26
313.15 K, 9400 kPa	645.2
313.15 K, 9425 kPa	646.98
313.15 K, 9450 kPa	648.9
313.15 K, 9475 kPa	650.62
313.15 K, 9500 kPa	652.27
313.15 K, 9525 kPa	653.94
313.15 K, 9550 kPa	655.55
313.15 K, 9575 kPa	657.12
313.15 K, 9600 kPa	658.64
313.15 K, 9625 kPa	660.18
313.15 K, 9650 kPa	661.7
313.15 K, 9675 kPa	663.21
313.15 K, 9700 kPa	664.7
313.15 K, 9725 kPa	666.14
313.15 K, 9750 kPa	667.47
313.15 K, 9775 kPa	668.89
313.15 K, 9800 kPa	670.26
313.15 K, 9825 kPa	671.58
313.15 K, 9850 kPa	672.87
313.15 K, 9875 kPa	674.13
313.15 K, 9900 kPa	675.44
313.15 K, 9925 kPa	676.66
313.15 K, 9950 kPa	677.96
313.15 K, 9975 kPa	679.1
313.15 K, 10000 kPa	680.33
313.15 K, 10025 kPa	681.48
313.15 K, 10050 kPa	682.54
313.15 K, 10075 kPa	683.7
313.15 K, 10100 kPa	684.8
313.15 K, 10125 kPa	685.84
313.15 K, 10150 kPa	686.83
313.15 K, 10175 kPa	687.88
313.15 K, 10200 kPa	688.8
313.15 K, 10225 kPa	689.94
313.15 K, 10250 kPa	690.95
313.15 K, 10275 kPa	691.93
313.15 K, 10300 kPa	693
313.15 K, 10325 kPa	693.97
313.15 K, 10350 kPa	694.91
313.15 K, 10375 kPa	695.92
313.15 K, 10400 kPa	696.92
313.15 K, 10425 kPa	697.78
313.15 K, 10450 kPa	698.73
313.15 K, 10475 kPa	699.66
313.15 K, 10500 kPa	700.62
313.15 K, 10525 kPa	701.51
313.15 K, 10550 kPa	702.39
313.15 K, 10575 kPa	703.29
313.15 K, 10600 kPa	704.13
313.15 K, 10625 kPa	705.05
313.15 K, 10650 kPa	705.9
313.15 K, 10675 kPa	706.75
313.15 K, 10700 kPa	707.66
313.15 K, 10725 kPa	708.5
313.15 K, 10750 kPa	709.33
313.15 K, 10775 kPa	710.14
313.15 K, 10800 kPa	710.93
313.15 K, 10825 kPa	711.74
313.15 K, 10850 kPa	712.55
313.15 K, 10875 kPa	713.33
313.15 K, 10900 kPa	714.15
313.15 K, 10925 kPa	714.94
313.15 K, 10950 kPa	715.71
313.15 K, 10975 kPa	716.52
313.15 K, 11000 kPa	717.28
313.15 K, 11025 kPa	718.03
313.15 K, 11050 kPa	718.76
313.15 K, 11075 kPa	719.52
313.15 K, 11100 kPa	720.27
313.15 K, 11125 kPa	720.97
